# Measured values: patent US20240000872A1, “NOVEL BACTERIOPHAGE THAT LYSES ACINETOBACTER GENUS BACTERIA HAVING RESISTANCE TO ANTIBIOTICS” (priority 2020, published 2024)
# Test system: Acinetobacter baumannii strains
# Experiment: Antibiotic susceptibility test (CLSI disk diffusion test method, read per CLSI 2016); as to antibiotic susceptibility S/I/R: key: ‘S’ means susceptible; ‘I’ means intermediate; ‘R’ means resistant; as to susceptibility category (S/I/R): key: ‘S’ means susceptible; ‘I’ means intermediate; ‘R’ means resistant
# Assay type: cell-based
# Set-up: antibiotic susceptibility test value / susceptibility test value (number given before S/I/R) / antibiotic susceptibility value: unit not given here
substance,measurement,setting,value
gentamicin,antibiotic susceptibility value,host strain YMC16/01/R353,16
same,susceptibility category (S/I/R),host strain YMC16/01/R353,R
same,susceptibility test value (number given before S/I/R),host strain YMC16/01/R353,16
same,antibiotic susceptibility S/I/R,host strain YMC16/01/R380,R
same,antibiotic susceptibility value,host strain YMC16/01/R380,16
same,susceptibility category (S/I/R),host strain YMC16/01/R380,R
same,susceptibility test value (number given before S/I/R),host strain YMC16/01/R380,16
same,antibiotic susceptibility S/I/R,host strain YMC16/01/R397,R
same,antibiotic susceptibility value,host strain YMC16/01/R397,16
same,susceptibility category (S/I/R),host strain YMC16/01/R397,R
same,susceptibility test value (number given before S/I/R),host strain YMC16/01/R397,16
same,antibiotic susceptibility S/I/R,host strain YMC16/01/R405,R
same,antibiotic susceptibility value,host strain YMC16/01/R405,16
same,susceptibility category (S/I/R),host strain YMC16/01/R405,R
same,susceptibility test value (number given before S/I/R),host strain YMC16/01/R405,16
same,antibiotic susceptibility S/I/R,host strain YMC16/03/R4461,R
same,antibiotic susceptibility value,host strain YMC16/03/R4461,16
same,susceptibility category (S/I/R),host strain YMC16/03/R4461,R
same,susceptibility test value (number given before S/I/R),host strain YMC16/03/R4461,16
same,antibiotic susceptibility S/I/R,host strain YMC16/05/R2210,R
same,antibiotic susceptibility value,host strain YMC16/05/R2210,16
same,susceptibility category (S/I/R),host strain YMC16/05/R2210,R
same,susceptibility test value (number given before S/I/R),host strain YMC16/05/R2210,16
same,antibiotic susceptibility S/I/R,host strain YMC16/07/R2512,R
same,antibiotic susceptibility value,host strain YMC16/07/R2512,16
same,susceptibility category (S/I/R),host strain YMC16/07/R2512,R
same,susceptibility test value (number given before S/I/R),host strain YMC16/07/R2512,16
same,antibiotic susceptibility S/I/R,host strain YMC16/09/R2471,R
same,antibiotic susceptibility value,host strain YMC16/09/R2471,16
same,susceptibility category (S/I/R),host strain YMC16/09/R2471,R
same,susceptibility test value (number given before S/I/R),host strain YMC16/09/R2471,16
same,antibiotic susceptibility S/I/R,host strain YMC16/10/R2537,R
same,antibiotic susceptibility value,host strain YMC16/10/R2537,16
same,susceptibility category (S/I/R),host strain YMC16/10/R2537,R
same,susceptibility test value (number given before S/I/R),host strain YMC16/10/R2537,16
same,antibiotic susceptibility S/I/R,host strain YMC16/12/B11422,R
same,antibiotic susceptibility value,host strain YMC16/12/B11422,16
same,susceptibility category (S/I/R),host strain YMC16/12/B11422,R
same,susceptibility test value (number given before S/I/R),host strain YMC16/12/B11422,16
same,antibiotic susceptibility S/I/R,host strain YMC16/12/B11449,R
same,antibiotic susceptibility value,host strain YMC16/12/B11449,16
same,susceptibility category (S/I/R),host strain YMC16/12/B11449,R
same,susceptibility test value (number given before S/I/R),host strain YMC16/12/B11449,16
same,antibiotic susceptibility S/I/R,host strain YMC16/12/B13325,R
same,antibiotic susceptibility value,host strain YMC16/12/B13325,16
same,susceptibility category (S/I/R),host strain YMC16/12/B13325,R
same,susceptibility test value (number given before S/I/R),host strain YMC16/12/B13325,16
same,antibiotic susceptibility S/I/R,host strain YMC16/12/P503,R
same,antibiotic susceptibility value,host strain YMC16/12/P503,16
same,susceptibility category (S/I/R),host strain YMC16/12/P503,R
same,susceptibility test value (number given before S/I/R),host strain YMC16/12/P503,16
same,antibiotic susceptibility S/I/R,host strain YMC16/12/R4637,R
same,antibiotic susceptibility value,host strain YMC16/12/R4637,16
same,susceptibility category (S/I/R),host strain YMC16/12/R4637,R
same,susceptibility test value (number given before S/I/R),host strain YMC16/12/R4637,16
same,antibiotic susceptibility S/I/R,host strain YMC17/01/B8053,R
same,antibiotic susceptibility value,host strain YMC17/01/B8053,16
same,susceptibility category (S/I/R),host strain YMC17/01/B8053,R
same,susceptibility test value (number given before S/I/R),host strain YMC17/01/B8053,16
same,antibiotic susceptibility S/I/R,host strain YMC17/01/B10087,R
same,antibiotic susceptibility value,host strain YMC17/01/B10087,16
same,susceptibility category (S/I/R),host strain YMC17/01/B10087,R
same,susceptibility test value (number given before S/I/R),host strain YMC17/01/B10087,16
same,antibiotic susceptibility S/I/R,host strain YMC17/01/B12075,S
same,antibiotic susceptibility value,host strain YMC17/01/B12075,1
same,susceptibility category (S/I/R),host strain YMC17/01/B12075,S
same,susceptibility test value (number given before S/I/R),host strain YMC17/01/B12075,1
same,antibiotic susceptibility S/I/R,host strain YMC17/01/B13454,R
same,antibiotic susceptibility value,host strain YMC17/01/B13454,16
same,susceptibility category (S/I/R),host strain YMC17/01/B13454,R
same,susceptibility test value (number given before S/I/R),host strain YMC17/01/B13454,16
same,antibiotic susceptibility S/I/R,host strain YMC17/01/P518,R
same,antibiotic susceptibility value,host strain YMC17/01/P518,16
same,susceptibility category (S/I/R),host strain YMC17/01/P518,R
same,susceptibility test value (number given before S/I/R),host strain YMC17/01/P518,16
same,antibiotic susceptibility S/I/R,host strain YMC17/01/R2812,R
same,antibiotic susceptibility value,host strain YMC17/01/R2812,16
same,susceptibility category (S/I/R),host strain YMC17/01/R2812,R
same,susceptibility test value (number given before S/I/R),host strain YMC17/01/R2812,16
same,antibiotic susceptibility S/I/R,host strain YMC17/02/B14,R
same,antibiotic susceptibility value,host strain YMC17/02/B14,16
same,susceptibility category (S/I/R),host strain YMC17/02/B14,R
same,susceptibility test value (number given before S/I/R),host strain YMC17/02/B14,16
same,antibiotic susceptibility S/I/R,host strain YMC17/02/B87,S
same,antibiotic susceptibility value,host strain YMC17/02/B87,2
same,susceptibility category (S/I/R),host strain YMC17/02/B87,S
same,susceptibility test value (number given before S/I/R),host strain YMC17/02/B87,2
same,antibiotic susceptibility S/I/R,host strain YMC17/02/B721,R
same,antibiotic susceptibility value,host strain YMC17/02/B721,16
same,susceptibility category (S/I/R),host strain YMC17/02/B721,R
same,susceptibility test value (number given before S/I/R),host strain YMC17/02/B721,16
same,antibiotic susceptibility S/I/R,host strain YMC17/02/B4039,R
same,antibiotic susceptibility value,host strain YMC17/02/B4039,16
same,susceptibility category (S/I/R),host strain YMC17/02/B4039,R
same,susceptibility test value (number given before S/I/R),host strain YMC17/02/B4039,16
same,antibiotic susceptibility S/I/R,host strain YMC17/02/B4520,R
same,antibiotic susceptibility value,host strain YMC17/02/B4520,16
same,susceptibility category (S/I/R),host strain YMC17/02/B4520,R
same,susceptibility test value (number given before S/I/R),host strain YMC17/02/B4520,16
same,antibiotic susceptibility S/I/R,host strain YMC17/02/B4864,S
same,antibiotic susceptibility value,host strain YMC17/02/B4864,1
same,susceptibility category (S/I/R),host strain YMC17/02/B4864,S
same,susceptibility test value (number given before S/I/R),host strain YMC17/02/B4864,1
same,antibiotic susceptibility S/I/R,host strain YMC17/02/B8414,R
same,antibiotic susceptibility value,host strain YMC17/02/B8414,16
same,susceptibility category (S/I/R),host strain YMC17/02/B8414,R
same,susceptibility test value (number given before S/I/R),host strain YMC17/02/B8414,16
same,antibiotic susceptibility S/I/R,host strain YMC17/02/P523,S
same,antibiotic susceptibility value,host strain YMC17/02/P523,4
same,susceptibility category (S/I/R),host strain YMC17/02/P523,S
same,susceptibility test value (number given before S/I/R),host strain YMC17/02/P523,4
same,antibiotic susceptibility S/I/R,host strain YMC17/02/R541,R
same,antibiotic susceptibility value,host strain YMC17/02/R541,16
same,susceptibility category (S/I/R),host strain YMC17/02/R541,R
same,susceptibility test value (number given before S/I/R),host strain YMC17/02/R541,16
same,antibiotic susceptibility S/I/R,host strain YMC17/02/R2392,R
same,antibiotic susceptibility value,host strain YMC17/02/R2392,16
same,susceptibility category (S/I/R),host strain YMC17/02/R2392,R
same,susceptibility test value (number given before S/I/R),host strain YMC17/02/R2392,16
same,antibiotic susceptibility S/I/R,host strain YMC17/03/B4730,R
same,antibiotic susceptibility value,host strain YMC17/03/B4730,16
same,susceptibility category (S/I/R),host strain YMC17/03/B4730,R
same,susceptibility test value (number given before S/I/R),host strain YMC17/03/B4730,16
same,antibiotic susceptibility S/I/R,host strain YMC17/03/B5000,R
same,antibiotic susceptibility value,host strain YMC17/03/B5000,16
same,susceptibility category (S/I/R),host strain YMC17/03/B5000,R
same,susceptibility test value (number given before S/I/R),host strain YMC17/03/B5000,16
same,antibiotic susceptibility S/I/R,host strain YMC17/03/P971,R
same,antibiotic susceptibility value,host strain YMC17/03/P971,16
same,susceptibility category (S/I/R),host strain YMC17/03/P971,R
same,susceptibility test value (number given before S/I/R),host strain YMC17/03/P971,16
same,antibiotic susceptibility S/I/R,host strain YMC17/03/R348,R
same,antibiotic susceptibility value,host strain YMC17/03/R348,16
same,susceptibility category (S/I/R),host strain YMC17/03/R348,R
same,susceptibility test value (number given before S/I/R),host strain YMC17/03/R348,16
same,antibiotic susceptibility S/I/R,host strain YMC17/03/R585,R
same,antibiotic susceptibility value,host strain YMC17/03/R585,16
same,susceptibility category (S/I/R),host strain YMC17/03/R585,R
same,susceptibility test value (number given before S/I/R),host strain YMC17/03/R585,16
same,antibiotic susceptibility S/I/R,host strain YMC17/03/R1888,R
same,antibiotic susceptibility value,host strain YMC17/03/R1888,16
same,susceptibility category (S/I/R),host strain YMC17/03/R1888,R
same,susceptibility test value (number given before S/I/R),host strain YMC17/03/R1888,16
same,antibiotic susceptibility S/I/R,host strain YMC17/03/R3279,R
same,antibiotic susceptibility value,host strain YMC17/03/R3279,16
same,susceptibility category (S/I/R),host strain YMC17/03/R3279,R
same,susceptibility test value (number given before S/I/R),host strain YMC17/03/R3279,16
same,antibiotic susceptibility S/I/R,host strain YMC17/03/R4077,R
same,antibiotic susceptibility value,host strain YMC17/03/R4077,16
same,susceptibility category (S/I/R),host strain YMC17/03/R4077,R
same,susceptibility test value (number given before S/I/R),host strain YMC17/03/R4077,16
same,antibiotic susceptibility S/I/R,host strain YMC17/03/R4607,R
same,antibiotic susceptibility value,host strain YMC17/03/R4607,16
same,susceptibility category (S/I/R),host strain YMC17/03/R4607,R
same,susceptibility test value (number given before S/I/R),host strain YMC17/03/R4607,16
same,antibiotic susceptibility S/I/R,host strain YMC17/04/R488,R
same,antibiotic susceptibility value,host strain YMC17/04/R488,16
same,susceptibility category (S/I/R),host strain YMC17/04/R488,R
same,susceptibility test value (number given before S/I/R),host strain YMC17/04/R488,16
same,antibiotic susceptibility S/I/R,host strain YMC17/04/R640,R
same,antibiotic susceptibility value,host strain YMC17/04/R640,16
same,susceptibility category (S/I/R),host strain YMC17/04/R640,R
same,susceptibility test value (number given before S/I/R),host strain YMC17/04/R640,16
same,antibiotic susceptibility S/I/R,host strain YMC/17/05/R1095,R
same,antibiotic susceptibility value,host strain YMC/17/05/R1095,16
same,susceptibility category (S/I/R),host strain YMC/17/05/R1095,R
same,susceptibility test value (number given before S/I/R),host strain YMC/17/05/R1095,16
